Source: publication PMC8359378 (British Journal of Clinical Pharmacology, 2021)
“Also recorded” adds a separate entry of the source. Marks after values point to notes of the source that are not given here.

Legend:
healthy subjects = experiment: safety and tolerability; format: in vivo, human
[1] = system: monkey nail‐cut bleeding model; settings: preclinical; cited from earlier work
[2] = system: FXa, FIXa, FXIIa, FVIIa, thrombin, tPA, urokinase and plasmin; settings: cited from earlier work
human FXIa = settings: competitive and reversible inhibition; cited from earlier work
[3] = system: rabbit abdominal incision bleeding model; settings: in combination with clopidogrel; cited from earlier work
[4] = Part A, single dose 20 mg, fasted
[5] = Part A, single dose 80 mg, fasted
[6] = Part A, single dose 150 mg, fasted
[7] = Part A, single dose 300 mg, fasted
[8] = Part B, 80 mg QD for 14 days, fed
[9] = Part B, 150 mg QD for 14 days, fed
[10] = Part B, 250 mg QD for 14 days, fed

In the case of Nc1ccc(-c2nc([C@H]3CCc4cc(-c5cc(Cl)ccc5-n5cnnn5)cc(=O)n43)c(F)[nH]2)c(F)n1 [ONO‐7684], the “Dizziness TEAE, subjects” value (healthy subjects; [4]) is reported as 1 (16.7) n (%), the “Gonorrhoea TEAE, subjects” value (healthy subjects; [4]) is reported as 0 n (%) and the “Headache TEAE, subjects” value (healthy subjects; [4]) is reported as 0 n (%). The “Lethargy TEAE, subjects” value (healthy subjects; [4]) was 0 n (%), the “Nasopharyngitis TEAE, subjects” value (healthy subjects; [4]) was 0 n (%) and the “Nausea TEAE, subjects” value (healthy subjects; [4]) was 1 (16.7) n (%). For the same compound, the “Pain TEAE, subjects” value (healthy subjects; [4]) was 0 n (%), the “Skin laceration TEAE, subjects” value (healthy subjects; [4]) was 0 n (%) and the “Thrombocytopenia TEAE, subjects” value (healthy subjects; [4]) was 0 n (%). The “Abdominal pain upper TEAE, subjects” value (healthy subjects; [5]) was 0 n (%), the “All TEAEs, subjects” value (healthy subjects; [5]) was 2 (33.3) n (%) and the “Dizziness TEAE, subjects” value (healthy subjects; [5]) was 0 n (%). The “Gonorrhoea TEAE, subjects” value (healthy subjects; [5]) was 1 (16.7) n (%), the “Headache TEAE, subjects” value (healthy subjects; [5]) was 1 (16.7) n (%) and the “Lethargy TEAE, subjects” value (healthy subjects; [5]) was 0 n (%). The “Nasopharyngitis TEAE, subjects” value (healthy subjects; [5]) was 0 n (%), the “Nausea TEAE, subjects” value (healthy subjects; [5]) was 0 n (%) and the “Pain TEAE, subjects” value (healthy subjects; [5]) was 0 n (%). The “Skin laceration TEAE, subjects” value (healthy subjects; [5]) was 0 n (%), the “Thrombocytopenia TEAE, subjects” value (healthy subjects; [5]) was 0 n (%) and the “Abdominal pain upper TEAE, subjects” value (healthy subjects; Part A, single dose 80 mg, fed) was 0 n (%). For the same compound, the “All TEAEs, subjects” value (healthy subjects; Part A, single dose 80 mg, fed) was 1 (16.7) n (%), the “Dizziness TEAE, subjects” value (healthy subjects; Part A, single dose 80 mg, fed) was 0 n (%) and the “Gonorrhoea TEAE, subjects” value (healthy subjects; Part A, single dose 80 mg, fed) was 0 n (%). The “Headache TEAE, subjects” value (healthy subjects; Part A, single dose 80 mg, fed) was 1 (16.7) n (%), the “Lethargy TEAE, subjects” value (healthy subjects; Part A, single dose 80 mg, fed) was 0 n (%) and the “Nasopharyngitis TEAE, subjects” value (healthy subjects; Part A, single dose 80 mg, fed) was 0 n (%). The “Nausea TEAE, subjects” value (healthy subjects; Part A, single dose 80 mg, fed) was 0 n (%), the “Pain TEAE, subjects” value (healthy subjects; Part A, single dose 80 mg, fed) was 0 n (%) and the “Skin laceration TEAE, subjects” value (healthy subjects; Part A, single dose 80 mg, fed) was 0 n (%). For the same compound, the “Thrombocytopenia TEAE, subjects” value (healthy subjects; Part A, single dose 80 mg, fed) was 0 n (%), the “Abdominal pain upper TEAE, subjects” value (healthy subjects; [6]) was 0 n (%) and the “All TEAEs, subjects” value (healthy subjects; [6]) was 0 n (%). The “Dizziness TEAE, subjects” value (healthy subjects; [6]) was 0 n (%), the “Gonorrhoea TEAE, subjects” value (healthy subjects; [6]) was 0 n (%) and the “Headache TEAE, subjects” value (healthy subjects; [6]) was 0 n (%). For the same compound, the “Lethargy TEAE, subjects” value (healthy subjects; [6]) was 0 n (%), the “Nasopharyngitis TEAE, subjects” value (healthy subjects; [6]) was 0 n (%) and the “Nausea TEAE, subjects” value (healthy subjects; [6]) was 0 n (%). For the same compound, the “Pain TEAE, subjects” value (healthy subjects; [6]) was 0 n (%), the “Skin laceration TEAE, subjects” value (healthy subjects; [6]) was 0 n (%) and the “Thrombocytopenia TEAE, subjects” value (healthy subjects; [6]) was 0 n (%). The “Abdominal pain upper TEAE, subjects” value (healthy subjects; [7]) was 0 n (%), the “All TEAEs, subjects” value (healthy subjects; [7]) was 2 (33.3) n (%) and the “Dizziness TEAE, subjects” value (healthy subjects; [7]) was 0 n (%). For the same compound, the “Gonorrhoea TEAE, subjects” value (healthy subjects; [7]) was 0 n (%), the “Headache TEAE, subjects” value (healthy subjects; [7]) was 2 (33.3)^a n (%) and the “Lethargy TEAE, subjects” value (healthy subjects; [7]) was 0 n (%). For the same compound, the “Nasopharyngitis TEAE, subjects” value (healthy subjects; [7]) was 0 n (%), the “Nausea TEAE, subjects” value (healthy subjects; [7]) was 0 n (%) and the “Pain TEAE, subjects” value (healthy subjects; [7]) was 0 n (%). For the same compound, the “Skin laceration TEAE, subjects” value (healthy subjects; [7]) was 0 n (%), the “Thrombocytopenia TEAE, subjects” value (healthy subjects; [7]) was 1 (16.7) n (%) and the “All TEAEs, subjects” value (healthy subjects; [8]) was 2 (33.3) n (%). The “Bleeding time prolonged TEAE, subjects” value (healthy subjects; [8]) was 0 n (%), the “Dizziness TEAE, subjects” value (healthy subjects; [8]) was 1 (16.7) n (%) and the “Headache TEAE, subjects” value (healthy subjects; [8]) was 1 (16.7) n (%). For the same compound, the “Muscle twitching TEAE, subjects” value (healthy subjects; [8]) was 1 (16.7) n (%), the “All TEAEs, subjects” value (healthy subjects; [9]) was “No TEAEs” and the “Bleeding time prolonged TEAE, subjects” value (healthy subjects; [9]) was 0 n (%). For the same compound, the “Dizziness TEAE, subjects” value (healthy subjects; [9]) was 0 n (%), the “Headache TEAE, subjects” value (healthy subjects; [9]) was 0 n (%) and the “Muscle twitching TEAE, subjects” value (healthy subjects; [9]) was 0 n (%). For the same compound, the “All TEAEs, subjects” value (healthy subjects; Part B, 150 mg QD for 14 days, fed, listed as ONO 7684) was 0 n (%), the “All TEAEs, subjects” value (healthy subjects; [10]) was “No TEAEs” and the “Bleeding time prolonged TEAE, subjects” value (healthy subjects; [10]) was 0 n (%). For the same compound, the “Dizziness TEAE, subjects” value (healthy subjects; [10]) was 0 n (%), the “Headache TEAE, subjects” value (healthy subjects; [10]) was 0 n (%) and the “Muscle twitching TEAE, subjects” value (healthy subjects; [10]) was 0 n (%). The “All TEAEs, subjects” value (healthy subjects; Part B, 250 mg QD for 14 days, fed, listed as ONO 7684) was 0 n (%), the bleeding risk (healthy subjects; Parts A and B) was “no evidence to suggest a bleeding risk; also recorded: no evidence of a bleeding risk” and the “severe or serious TEAEs, TEAEs leading to discontinuation” value (healthy subjects; Parts A and B) was “no severe or serious TEAEs”. The tolerability (healthy subjects; all dose levels, single and repeated doses) was “well tolerated at all dose levels tested”, the bleeding time [1] was “did not prolong bleeding time” and the “selectivity for FXIa relative to other coagulation/fibrinolysis factors” value [2] was “highly selective for FXIa”. The Ki (human FXIa) was 2 nM and the “bleeding risk compared with rivaroxaban” value [3] was “lower bleeding risk than rivaroxaban”.
